The assay deals with HIV-1 single-round infectious reporter virus. Nature of the assay: Single-round infectious HIV-1 luciferase reporter virus infection of HeLa CD4 cells (antiviral EC50). It is filed as cell-based. The conditions noted are these: Human immunodeficiency virus 1, HeLa, read-out: EC50 Group from Table 3. How it is done: • Virus production—Human embryonic Kidney cell line, 293T, was propagated in Dulbecco's Modified Eagle Medium (Invitrogen, Carlsbad, Calif.) containing 10% fetal Bovine serum (FBS, Sigma, St. Louis, Mo.). • Virus infection—Human epithelial cell line, HeLa, expressing the HIV-1 receptor CD4 was propagated in Dulbecco's Modified Eagle Medium (Invitrogen, Carlsbad, Calif.) containing 10% fetal Bovine serum (FBS, Sigma, St. Louis, Mo.) and supplemented with 0.2 mg/mL Geneticin (Invitrogen, Carlsbad, Calif.). Virus-Single-round infectious reporter virus was produced by co-transfecting human embryonic Kidney 293 cells with an HIV-1 envelope DNA expression vector and a proviral cDNA containing an envelope deletion mutation and the luciferase reporter gene inserted in place of HIV-1 nef sequences (Chen et al, Ref. 41). Transfections were performed using lipofectAMINE PLUS reagent as described by the manufacturer (Invitrogen, Carlsbad, Calif.). Experiment • 1. HeLa CD4 cells were plated in 96 well plates at a cell density of 1×10^4 cells per well in 100 μl Dulbecco's Modified Eagle Medium containing 10% fetal Bovine serum and incubated overnight. • 2. Compound was added in a 2 μl dimethylsulfoxide solution, so that the final assay concentration would be ≦10 μM. • 3. 100 μl of single-round infectious reporter virus in Dulbecco's Modified Eagle Medium was then added to the plated cells and compound at an approximate multiplicity of infection (MOI) of 0.01, resulting in a final volume of 200 μl per well. • 4. Virally-infected cells were incubated at 37 degrees Celsius, in a CO2 incubator, and harvested 72 h after infection. • 5. Viral infection was monitored by measuring luciferase expression from viral DNA in the infected cells using a luciferase reporter gene assay kit, as described by the manufacturer (Roche Molecular Biochemicals, Indianapolis, Ind.). Infected cell supernatants were removed and 50 μl of lysis buffer was added per well. After 15 minutes, 50 μl of freshly-reconstituted luciferase assay reagent was added per well. Luciferase activity was then quantified by measuring luminescence using a Wallac microbeta scintillation counter. • 6. The percent inhibition for each compound was calculated by quantifying the level of luciferase expression in cells infected in the presence of each compound as a percentage of that observed for cells infected in the absence of compound and subtracting such a determined value from 100. • 7. An EC50 provides a method for comparing the antiviral potency of the compounds of this disclosure. The effective concentration for fifty percent inhibition (EC50) was calculated with the Microsoft Excel Xlfit curve fitting software. For each compound, curves were generated from percent inhibition calculated at 10 different concentrations by using a four parameter logistic model (model 205). Table 3 is the key for the data in Table 4. Results
(In general: In a reporter assay the amount or activity of a reporter protein is the signal.)

`O=C(C(=O)N1CCN(c2ncccc2-c2ccccc2)CC1)c1c[nH]c2c(-n3ccnn3)ncc(F)c12` [G-3b]: the EC50 (usually the concentration giving half of the maximal effect) is under 500 nM.
Under `COc1cnc(-n2cnc(C)n2)c2[nH]cc(C(=O)C(=O)N3CCC(C4=NCCN4c4ccccc4)CC3)c12` [G-17b] stands under 500 nM; under `O=C(C(=O)N1CCN(c2cc(O)nnc2-c2ccccc2)CC1)c1c[nH]c2c(-n3ccnn3)ncc(F)c12` [A-6], under 500 nM.
As to `COc1cnc(-c2ccc(N3CCN(C(=O)NC(C)(C)C)CC3)cc2)c2[nH]cc(C(=O)C(=O)N3CCN(c4nnnn4-c4ccccn4)CC3)c12` [B-86], the EC50 was under 500 nM.
Under `N#Cc1ccc(-n2nnnc2N2CCN(C(=O)C(=O)c3c[nH]c4c(-n5ccnn5)ncc(F)c34)CC2)cc1` [E-12] stands over 500 nM.
Under `N#CCCC(=O)c1cccnc1N1CCN(C(=O)C(=O)c2c[nH]c3c(-n4ccnn4)ncc(F)c23)CC1` [D-45] stands over 500 nM.
Under `O=C(c1ccccn1)c1cccnc1N1CCN(C(=O)C(=O)c2c[nH]c3c(-n4ccnn4)ncc(F)c23)CC1` [D-32] stands under 500 nM.
`O=C(C(=O)N1CCN(c2nsnc2N2CCCC2)CC1)c1c[nH]c2c(-n3ccnn3)ncc(F)c12` [D-47]: the EC50 was under 500 nM.
The result for `COc1cnc(-n2cnc(C)n2)c2[nH]cc(C(=O)C(=O)N3CCN(c4nnnn4-c4ccccc4)CC3)c12` [A-9] reads under 500 nM; that for `COc1cnc(-n2cnc(C)n2)c2[nH]cc(C(=O)C(=O)N3CCN(c4ncccc4C)CC3)c12` [D-3], under 500 nM; that for `COc1cnc(-c2ccn(CC(=O)O)n2)c2[nH]cc(C(=O)C(=O)N3CCN(c4nnnn4-c4ccccn4)CC3)c12` [B-75], under 500 nM.
Under `C[C@@H]1CN(c2snnc2-c2ccccc2)CCN1C(=O)C(=O)c1c[nH]c2c(-n3ccnn3)ncc(F)c12` [D-30] stands under 500 nM.
In the case of `O=C(NCCO)c1ncc(F)c2c(C(=O)C(=O)N3CCN(c4nnnn4-c4ccccc4)CC3)c[nH]c12` [B-55], the EC50 was under 500 nM.
The result for `COc1cnc(-n2cnc(C)n2)c2[nH]cc(C(=O)C(=O)N3CCN(c4nc(N(C)C)n(-c5ccccc5)n4)CC3)c12` [G-4d] reads under 500 nM; that for `COc1cnc(-c2ccn(C)n2)c2[nH]cc(C(=O)C(=O)N3CCN(c4nnnn4-c4ccccn4)CC3)c12` [B-73], under 500 nM; that for `COc1cnc(-n2ccnn2)c2[nH]cc(C(=O)C(=O)N3C(C)CN(c4nnnn4-c4ccccc4)CC3C)c12` (stereo not shown) [A-58], under 500 nM.
Consider `C[C@@H]1CN(c2ncccc2N2CC(C)(C)C2=O)CCN1C(=O)C(=O)c1c[nH]c2c(-n3ccnn3)ncc(F)c12` [D-28], for which the EC50 was over 500 nM.
On to `NC(=O)c1ncc(F)c2c(C(=O)C(=O)N3CCN(c4nnnn4-c4ccccc4)CC3)c[nH]c12` [B-50], for which the EC50 is under 500 nM.
Under `COc1cnc(-n2cnc(C)n2)c2[nH]cc(C(=O)C(=O)N3CCN(c4ncccc4C(O)c4nccs4)CC3)c12` (stereo not shown) [A-66] stands under 500 nM; under `COc1cnc(-n2cnc(C)n2)c2[nH]cc(C(=O)C(=O)N3CCN(c4[nH]nnc4-c4ccccc4)CC3)c12` [G-8b], under 500 nM.
The result for `O=C1C(c2ccccc2)=C(N2CCN(C(=O)C(=O)c3c[nH]c4c(-n5ccnn5)ncc(F)c34)CC2)c2ccccc21` [D-23] reads under 500 nM; that for `COc1cnc(-c2cncs2)c2[nH]cc(C(=O)C(=O)N3CCN(c4nnnn4-c4ccccn4)CC3)c12` [B-71], under 500 nM.
The result for `C[C@@H]1CN(c2nnnn2-c2ccccc2)[C@@H](C)CN1C(=O)C(=O)c1c[nH]c2c(-n3ccnn3)ncc(F)c12` [A-26] reads under 500 nM; that for `O=C(C(=O)N1CCC(c2nnc(-c3ccccc3)o2)CC1)c1c[nH]c2c(-n3ccnn3)ncc(F)c12` [A-33], over 500 nM; that for `O=C(C(=O)N1CCN(c2nnnn2-c2ccccc2)CC1)c1c[nH]c2cccc(F)c12` [A-27], under 500 nM.
